The supplement of paper PMC5579334
± gives the standard deviation of the averaged measurements.

Columns and labels:
[1] = tested on: HS-PSS; assay: drug sensitivity score (DSS, CellTiter-Glo viability, 72 h) (DSS (dimensionless)); higher = more sensitive; extreme values may be limits of the assay
How it was run: (§1)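 MPNST cell lines and primary human Schwann cells (750–1000 cells per well) went into 384-well plates preprinted with each compound at five concentrations in 10-fold steps. Plates were incubated 72 h at 37 °C, 5% CO2. Viability was read as CellTiter-Glo ATP luminescence, scaled between vehicle and positive-control wells, with duplicates averaged where present. Percent inhibition is at the top concentration; drug sensitivity score and relative IC50 (censored at top concentration) come from four-parameter logistic fits.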

[2] = tested on: HS-Sch-2; assay: as above
How it was run: as §1

[3] = tested on: HSC1 (primary human Schwann cells); assay: as above
How it was run: as §1

[4] = tested on: HSC2 (primary human Schwann cells); assay: as above
How it was run: as §1

[5] = tested on: S1507-2; assay: as above
How it was run: as §1

[6] = tested on: S462; assay: as above
How it was run: as §1

[7] = tested on: ST8814; assay: as above
How it was run: as §1

[8] = tested on: STS26T; assay: as above
How it was run: as §1

[9] = tested on: YST-1; assay: as above
How it was run: as §1

[10] = tested on: HS-PSS; assay: drug sensitivity score (DSS, CellTox-Green cytotoxicity, 72 h) (DSS (dimensionless)); higher = more cytotoxic; extreme values may be limits of the assay
How it was run: (§2)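 MPNST cell lines and primary human Schwann cells were incubated 72 h at 37 °C in 384-well plates holding five 10-fold compound dilutions. CellTox-Green was added before seeding at a final 1:1000 dilution and reported fluorescence from DNA released by disrupted cells. Signals were scaled to vehicle and positive-control wells, and cultures failing plate quality control were dropped. Drug sensitivity score and relative IC50 come from four-parameter logistic fits, with IC50 censored at the top concentration.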

[11] = tested on: HSC1 (primary human Schwann cells); assay: as above
How it was run: as §2

[12] = tested on: HSC2 (primary human Schwann cells); assay: as above
How it was run: as §2

[13] = tested on: S1507-2; assay: as above
How it was run: as §2

[14] = tested on: ST8814; assay: as above
How it was run: as §2

[15] = tested on: STS26T; assay: as above
How it was run: as §2

[16] = tested on: HS-PSS; assay: % inhibition of CellTiter-Glo viability at highest tested concentration (72 h), relative to DMSO and benzethonium chloride controls; higher = more inhibition
How it was run: as §1

[17] = tested on: HS-Sch-2; assay: as above
How it was run: as §1

[18] = tested on: HSC1 (primary human Schwann cells); assay: as above
How it was run: as §1

[19] = tested on: HSC2 (primary human Schwann cells); assay: as above
How it was run: as §1

[20] = tested on: S1507-2; assay: as above
How it was run: as §1

[21] = tested on: S462; assay: as above
How it was run: as §1

[22] = tested on: ST8814; assay: as above
How it was run: as §1

[23] = tested on: STS26T; assay: as above
How it was run: as §1

[24] = tested on: YST-1; assay: as above
How it was run: as §1

SMILES | drug sensitivity score [1] | drug sensitivity score [2] | drug sensitivity score [3] | drug sensitivity score [4] | drug sensitivity score [5] | drug sensitivity score [6] | drug sensitivity score [7] | drug sensitivity score [8] | drug sensitivity score [9] | drug sensitivity score [10] | drug sensitivity score [11] | drug sensitivity score [12] | drug sensitivity score [13] | drug sensitivity score [14] | drug sensitivity score [15] | % inhibition [16] [%] | % inhibition [17] [%] | % inhibition [18] [%] | % inhibition [19] [%] | % inhibition [20] [%] | % inhibition [21] [%] | % inhibition [22] [%] | % inhibition [23] [%] | % inhibition [24] [%]
O=C(Nc1ccc2[nH]nc(-c3ccncc3)c2c1)[C@@H]1CCN(CC(=O)N2CCN(c3ccc(-c4ncccn4)cc3)CC2)C1 (max concentration tested 10000 nM) | 5.75 | 8.78 | 10.4 | 10.6 | 10.7 ± 1.2 | 20.4 ± 0.4 | 16.7 | 4.44 | 1.98 | 0 | 0 | 0.0074 | 9.36 ± 3.5 | 10.8 | 1.59 | 45.2 | 66.4 | 61.3 | 51.2 | 77.5 ± 2.5 | 97 ± 2.1 | 91.2 | 40.4 | 31.8
CCc1cnn2c(NCc3ccc[n+]([O-])c3)cc(N3CCCC[C@H]3CCO)nc12 [Dinaciclib] (max concentration tested 1000 nM) | 21 | 25.1 | 16.9 | 19.9 | 15 ± 1.9 | 24.4 ± 0.71 | 15 | 21.6 | 25.2 | 5.02 | 5.96 | 7.57 | 2.29 ± 3.1 | 5.45 | 14.8 | 84.2 | 101 | 83.5 | 86.4 | 76.6 ± 1.6 | 90.8 ± 2.7 | 80.5 | 92.7 | 99.5
CCOC(=O)CCNc1cc(N2CCc3ccccc3CC2)nc(-c2ccccn2)n1 [GSK-J4] (max concentration tested 100000 nM) | 14.4 | 15.9 | 14.8 | 15.2 | 13.4 ± 0.92 | 16.3 ± 0.36 | 14.1 | 14.6 | 16.3 | 4.79 | 7.1 | 7.09 | 3.11 ± 4.4 | 6.13 | 8.17 | 99.4 | 99 | 95.8 | 96.5 | 97.2 ± 1.9 | 95.2 ± 0.48 | 97.1 | 96.1 | 100
C[C@]1(c2nc3c(C(N)=O)cccc3[nH]2)CCCN1 [Veliparib] (max concentration tested 10000 nM) | 0 | 0 | 0.338 | 0.954 | 1.93 ± 2.7 | 0.0431 ± 0.061 | 0 | 0 | 4.89 | 0 | 0 | 0 | 0 | 0 | 0 | 10 | 2.46 | 14.6 | 18.2 | 10.9 ± 5.5 | 12 ± 3.7 | 9.88 | 10.6 | 49
CC(C)C[C@H](NC(=O)[C@H](CCc1ccccc1)NC(=O)CN1CCOCC1)C(=O)N[C@@H](Cc1ccccc1)C(=O)N[C@@H](CC(C)C)C(=O)[C@@]1(C)CO1 [Carfilzomib] (max concentration tested 1000 nM) | 23.3 | 31.2 | 23 | 24.4 | 21.7 ± 1.4 | 29 ± 2 | 24.8 | 24.9 | 28.1 | 17.5 | 19.3 | 19.7 | 21.4 ± 2.3 | 21.7 | 21.5 | 99.9 | 102 | 103 | 101 | 102.9 ± 0.73 | 104 ± 1.3 | 102 | 103 | 101
CN(C)CCOc1ccc(/C(=C(/CCCl)c2ccccc2)c2ccccc2)cc1 [Toremifene] (max concentration tested 10000 nM) | 2.31 | 1.63 | 1.48 | 3.28 | 1.26 ± 0.65 | 0.537 ± 0.16 | 1.19 | 0.998 | 0.84 | 0 | 0 | 0 | 1.36 ± 0.28 | 5.11 | 0.141 | 48.1 | 37.2 | 21.8 | 55.6 | 32.2 ± 11 | 22.3 ± 3 | 34.5 | 27.1 | 26.3
CC(C)n1cnc2c(NCCc3ccc(O)cc3)nc(-c3csc4ccccc34)nc21 [StemRegenin 1] (max concentration tested 10000 nM) | 2.39 | 4.66 | 1.71 | 2.51 | 0.495 ± 0.7 | 0.493 ± 0.7 | 1.77 | 1.69 | 0 | 0 | 0 | 0 | 0 | 0 | 0.0972 | 46.5 | 92.9 | 42 | 37 | 19 ± 17 | 15.8 ± 7.6 | 31.3 | 41.7 | -1.94
CN1CCN(c2ccc3nc(-c4c(N)c5c(F)cccc5[nH]c4=O)[nH]c3c2)CC1 [Dovitinib] (max concentration tested 10000 nM) | 0 | 0.84 | 1.65 | 0.382 | 3.54 ± 3.6 | 0.655 ± 0.32 | 0 | 0.0001 | 0.32 | 0 | 0 | 0 | 0 | 0 | 0 | -2.95 | 22.3 | 19.1 | 16.2 | 21.7 ± 2.2 | 18.1 ± 0.51 | -2.1 | 10.4 | 17.6
Cc1c(N)nc([C@H](CC(N)=O)NC[C@H](N)C(N)=O)nc1C(=O)N[C@H](C(=O)N[C@H](C)[C@@H](O)[C@H](C)C(=O)N[C@H](C(=O)NCCc1nc(-c2nc(C(=O)NCCC[S+](C)C)cs2)cs1)[C@@H](C)O)[C@@H](O[C@@H]1O[C@@H](CO)[C@@H](O)[C@H](O)[C@@H]1O[C@H]1O[C@H](CO)[C@@H](O)[C@H](OC(N)=O)[C@@H]1O)c1c[nH]cn1 [Bleomycin] (max concentration tested 10000 nM) | 5.94 | 8.47 | 6.33 | 8.81 | 2.36 ± 0.43 | 5 ± 1.1 | 4.1 | 5.46 | 10.9 | 0.34 | 0 | 1.66 | 1.29 ± 0.61 | 2.35 | 4.43 | 53.2 | 72.1 | 50.4 | 54.5 | 29.9 ± 7.5 | 68.4 ± 1.7 | 46.4 | 62.1 | 79.5
CCN(CCO)CCCOc1ccc2c(Nc3cc(CC(=O)Nc4cccc(F)c4)[nH]n3)ncnc2c1 [AZD1152-HQPA] (max concentration tested 1000 nM) | 0.81 | 0 | 7.19 | 8.05 | 3.8464 ± 7.1e-05 | 8.6 ± 0.56 | 4.68 | 4.07 | 11.2 | 0 | 0 | 0.941 | 0 | 4.15 | 3.61 | 9.86 | 0.66 | 34.7 | 39.6 | 37.8 ± 7.3 | 35.8 ± 1.1 | 51.2 | 41.2 | 40.6
CC(C)(C)Cn1c(N)nc2ccc(-c3[nH]c(C(C)(C)C)nc3-c3ccc(F)cc3)nc21 [Ralimetinib] (max concentration tested 10000 nM) | 1.76 | 2.8 | 2.2 | 3.4 | 2.27 ± 0.73 | 0.51 ± 0.72 | 2.03 | 1.33 | 7.83 | 0 | 0 | 0 | 0 | 0 | 0 | 45.7 | 54.9 | 34.9 | 34 | 33.8 ± 6.8 | 13.4 ± 7.5 | 28.2 | 28.7 | 41.8
CN[C@@H](C)C(=O)N[C@H]1CN(C(=O)CC(C)C)CC[C@H]2CC[C@@H](C(=O)NC(c3ccccc3)c3ccccc3)N2C1=O [AT-406] (max concentration tested 10000 nM) | 0.14 | 0 | 0 | 0 | 0.378 ± 0.28 | 0 | 0 | 12.4 | 0 | 0 | 0 | 0 | 13.1 ± 11 | 0 | 22.4 | 14.3 | 10.6 | -7.18 | -4.84 | 14.97 ± 0.11 | 3.84 ± 5.2 | 3.57 | 56 | 8.35
COc1cc(Nc2ncc(F)c(Nc3ccc4c(n3)NC(=O)C(C)(C)O4)n2)cc(OC)c1OC [Tamatinib] (max concentration tested 10000 nM) | 0 | 0.4 | 5.11 | 3.08 | 0 | 0 | 0.365 | 0.0251 | 0 | 0 | 0 | 0.0662 | 0.0129 ± 0.018 | 0.113 | 0.558 | 9.72 | 13.4 | 37.9 | 36.1 | -0.148 ± 3.2 | 4.27 ± 6.2 | 11.9 | 10.2 | -0.14
